Assay results taken from the NIST ThermoML archive (doi:10.1021/acs.jced.6b00428).
Numbers after ± are expanded uncertainties.

Assay: refractive index (Na D-line) (dimensionless)
Settings: 101.33 kPa, Liquid, Standard Abbe refractometry

refractive index (298.15 K)	refractive index (293.15 K)	Compound
1.3616 ± 0.0024		CCO [ethanol]
	1.3771 ± 0.0024	CC(=O)OC(C)C [1-methylethyl ethanoate]
1.3328 ± 0.0024		O [water]
